Data published in patent publication US5972636A (priority 1997, dated 1999).
“Also recorded” adds a separate entry of the source. Where two headings read alike, the source gives them in different places.

How the values were obtained:
[1] = system: fraction II (ATP-dependent degradative system); experiment: Hydrolysis of Ub-125I-lysozyme by muscle fraction II; assay type: biochemical, rabbit
Experimental: All enzymatic assays were linear, except where noted (see below). When present, ATP was 2 mM in assays. Unless otherwise stated, in all assays, 50 μl aliquots of the fraction from the column or of the purified protease (10 μg)were incubated in 200 μl containing 50 mM TRIS-HCl (pH 7.8), 10 mM MgCl2, 1 mM DTT, and 5 μg of the radioactive proteins, 0.5 μg of Ub-conjugates, or 0.5 mM of the fluorogenic peptide. For assays of proteolysis, the reaction mixtures contained approximately 15,000 cpm of Ub-lysozyme or labeled proteins. Degradation of ^125 I-lysozyme, Ub-^125 I-lysozyme, ^14 C-casein, ^14 C-hemoglobin and OH/O2^- treated ^14 C-hemoglobin were assayed by measuring the production of acid-soluble radioactivity after 60 min of incubation at 37° C. Ub-^125 I-lysozyme was prepared using liver fraction II, according to the method of Hough and Rechsteiner. Hough et al., J. Biol. Chem. 261:2400-2408 (1986), Hough, R. and Rechsteiner, M. J. Biol. Chem. 261:2391-2399 (1986). ^125 I-lysozyme and Ub were prepared as described previously. Waxman et al., J. Biol. Chem. 262:2451-2457 (1987), Fagan et al., BioChem. J. 243:335-343 (1987). The concentration of conjugates was calculated based on the specific radioactivity of the ^125 I-lysxozyme used for conjugate synthesis. One unit of sLLVT-MCA represents 10 nmol of MCA produced in 30 min. […]

[2] = system: new protease (multipain) from skeletal muscle; settings: for Relative activity (%), degradation of Ub-125I-lysozyme by the new activity: None = 100, 2 mM of the nucleotides or 10 mM PPi, 37° C. 1 hour
[3] = system: 1500 kDa complex (proteasome-multipain); settings: for Realtive Activity (%) Complex, Ub-lysozyme degradation: None = 100, 2 mM of the nucleotide or 10 mM PPi
[4] = system: proteasome-multipain complex formation; assay type: biochemical, rabbit
[5] = system: ATP-ubiquitin-dependent proteolytic system; experiment: ATP-ubiquitin-activated proteolysis in extracts (Fraction II) of psoas muscle; assay type: biochemical, rabbit
Text: Psoas muscles from fed and fasted rabbits were used to obtain sufficient material for assay of the ATP-dependent system in cell-free extracts. Fasted rabbits were deprived of food for sufficient time to cause a weight loss of about 20% (similar to that seen in rats deprived of food for 1 day). The animals were anesthesized, and their psoas muscles dissected and homogenized as described previously. Fagan, J. M., et al., J. Biol. Chem., 261: 5705-5713 (1986).
After centrifugation at 10,000×g and then at 100,000×g, the muscle extracts were fractionated on DE52 cellulose to remove ubiquitin and most cell proteins, as described previously. Han, H. Q. et al., Federation Proc, 2:A564 (1988) and Waxman, L., et al., J. Biol. Chem., 262:2451-2457 (1987). The fraction containing the ATP-ubiquitin-dependent proteolytic system (Herskho, A., J. Biol. Chem., 263:15237-15240 (1988); Rechsteiner, M., Ann. Rev. Cell Biol., 3:1-30 (1987) and Fagan, J. M., et al. Biochem J., 243:335-343 (1987)) was eluted with 0.5M NaCl ("Fraction II"), dialyzed against a buffer containing Tris (50 mM, pH7.8), dithiothreitol (1 mM), and 20% glycerol, and concentrated before assay of activity. Degradation of endogenous muscle proteins was assayed by measuring the production of free tyrosine, which was determined fluorometrically after precipitation of proteins with trichloroacetic acid. Tischler, M. et al., J. Biol, Chem., 257:1613-1621 (1982) and Fulks, R., et al., J. Biol. Chem., 250:290-298 (1975). In addition, the degradation of ^14 C-casein was assayed by measuring the production of acid-soluble radioactivity. Waxman, L., et al., J. Biol. Chem., 262:2451-2457 (1987) and Fagan, J. M., Biochem J., 243:335-343 (1987).

[6] = system: denervated soleus; assay type: cell-based, rat
[7] = system: Ub-lysozyme conjugates; experiment: Degradation of Ub-lysozyme conjugates in 1st and 2nd hour with additions at 60 min; assay type: biochemical, rabbit; settings: substance added at 60 min, cystatin 4 μM
[8] = target: T1, proteasome from skeletal muscle (Oryctolagus cuniculus, UniProt G1T4Q9); assay type: biochemical, rabbit
T1 construct: from tissue; host or cells: rabbit skeletal (psoas) muscle, proteasome fraction after Mono Q and Superose 6

In the case of `Nc1ncnc2c1ncn2[C@@H]1O[C@H](COP(=O)(O)CP(=O)(O)OP(=O)(O)O)[C@@H](O)[C@H]1O` [AMP-CPP], the “effect on degradation of Ub-conjugated proteins by fraction II, in words” value [1] is reported as “did not stimulate the degradation of Ub-conjugated proteins”.

`Nc1ncnc2c1ncn2[C@@H]1O[C@H](COP(=O)(O)OP(=O)(O)NP(=O)(O)O)[C@@H](O)[C@H]1O` [AMP-PNP, adenyl 5'-oyl-imidodiphosphate] was tested, and the “effect of nucleotides on Ub-125I-lysozyme hydrolysis by the purified enzyme, in words” value ([2]; Table III) was “No stimulation”, the “Relative activity (%), degradation of Ub-125I-lysozyme by the new activity” value ([2]; Table III) was 90% and the “effect of nucleotides on Ub-125I-lysozyme hydrolysis by the complex, in words” value ([3]; Table VIII) was “No stimulation”. The “Realtive Activity (%) Complex, Ub-lysozyme degradation” value ([3]; Table VIII) was 109%, the “effect on formation of the proteasome-multipain complex, in words” value (“effect on formation” below) [4] was “completely prevented complex formation” and the “effect on degradation of Ub-conjugated proteins by fraction II, in words” value [1] was “did not stimulate the degradation of Ub-conjugated proteins”.

`Nc1ncnc2c1ncn2[C@@H]1O[C@H](COP(=O)(O)OP(=O)(O)OP(=O)(O)O)[C@@H](O)[C@H]1O` [ATP] was tested, and the “stimulation of Ub-lysozyme hydrolysis by the new protease” value ([2]; ATP 2 mM where stated, 60 min) was 5 fold, the “stimulation of lysozyme degradation by the new protease” value ([2]; ATP 2 mM where stated, 60 min) was 3 fold and the “Relative activity (%), degradation of Ub-125I-lysozyme by the new activity” value ([2]; Table III) was 743%. The Km ([2]; read-out: Km for ATP, multipain, Ub-conjugate degradation) was no more than 300 µM, the “ATP concentration of maximal stimulation of conjugate degradation, 1500 kDa complex” value [3] was “about 0.7 mM” and the “stimulation of degradation of Ub-125I-lysozyme, 125I-lysozyme, sLLVT-MCA or casein by the complex” value ([3]; 1500 kda proteasome-multipain complex) was 3-5 fold. For the same molecule, the “Realtive Activity (%) Complex, Ub-lysozyme degradation” value ([3]; Table VIII) was 458%, the Km ([3]; read-out: Km for ATP, 1500 kDa complex, Ub-conjugate degradation) was no more than 300 µM and the “effect on formation” value ([4]; DFP 1 mM or cystatin 4 μM preincubated 10 min, AMP-PNP in place of ATP) was “allowed formation of a 1300 kDa complex”. For the same molecule, the “14C-Casein Hydrolysis” value [5] was 2.3 ± 0.2 ug casein hydrolyzed/1 hr, the “Hydrolysis of Endogenous Proteins” value ([5]; Fasted rabbits, No addition 2.0 ± 0.1, ATP 5 mM, ubiquitin 15 μM) was 10.8 ± 2.1 nmol try released/2 hr and the “Hydrolysis of Endogenous Proteins” value ([5]; Fed rabbits, No addition 0.6 ± 0.1, ATP 5 mM, ubiquitin 15 μM) was 5.7 ± 0.9 nmol try released/2 hr. The “14C-Casein Hydrolysis” value ([5]; Fed rabbits, No addition 1.1 ± 0.2, ATP 5 mM, ubiquitin 15 μM) was 1.5 ± 0.2 ug casein hydrolyzed/1 hr.

In the case of `CN` [Methylamine], the “Myofibrillar Proteins 3-Methylhistidine Release” value ([6]; None = 5.11 ± 0.21, as E65) is reported as 5.05 ± 0.19 pmol/mg/2h and the “Total Proteins Tyrosine Release” value ([6]; soleus three days after section of the sciatic nerve, None = 328 ± 10, methylamine 10 μM, E64c 50 μM, dinitrophenol 0.1 mM, 2-deoxyglucose 5 mM) is reported as 330 ± 11 pmol/mg/2h.

B1: Cystatin A: egg-white cystatin, a potent inhibitor of many papain-like thiol proteinases (protein, UniProt P01040 1-98, looked up)
Cystatin-A: MIPGGLSEAKPATPEIQEIVDKVKPQLEEKTNETYGKLEAVQYKTQVVAGTNYYIKVRAGDNKYMHLKVFKSLPGQNEDLVLTGYQVDKNKDDELTGF
B1 was tested, and the “Realtive Activity (%) Multipain” value [2] was 30%, the “Relative activity (%) NEW PROTEASE OH/O2 - treated hemoglobin” value [2] was 27% and the “Relative activity (%) NEW PROTEASE Ub-lysozyme” value [2] was 30%. For the same molecule, the “Relative activity (%) NEW PROTEASE lysozyme” value [2] was 24%, the Ki ([2]; read-out: Ki, inhibition of proteolysis by multipain) was less than 1000 nM and the “Degradation in 2nd hour” value ([7]; Complex added initially, None = 65) was 18 ng. For the same molecule, the “Degradation in 2nd hour” value ([7]; Multipain added initially, None = 74) was 4 ng, the “Realtive Activity (%) Complex (Ub-125I-Lysozyme)” value [3] was 35% and the “inhibition of conjugate breakdown by the complex” value [3] was 65%. The “Realtive Activity (%) Proteasome (sLLVT-MCA)” value [8] was 93%, the “Relative activity (%) […]-MCA” value [8] was 93% and the “effect on formation” value [4] was “did not occur; also recorded: blocked”.
